# Reference: ChEMBL document CHEMBL3885881, “DrugMatrix”
# Species: Rattus norvegicus
# Assay: DrugMatrix - Regimen: Daily Repeat
# Type: toxicity, organism-based, Sprague-Dawley
# Parameters: regimen Daily Repeat, gender Male, age 6-8 weeks
# Conditions: in vivo, po, […], route oral GAVAGE, dose 2.7 mg/Kg, dose level Low, vehicle 100 % WATER; for ABSOLUTE BASOPHIL / ABSOLUTE EOSINOPHIL / ABSOLUTE LYMPHOCYTE / ABSOLUTE MONOCYTE / ABSOLUTE SEGMENTED NEUTROPHIL / BASOPHIL / EOSINOPHIL / ERYTHROCYTE COUNT / HEMATOCRIT / HEMOGLOBIN / LEUKOCYTE COUNT / LYMPHOCYTE / MEAN CORPUSCULAR HEMOGLOBIN / MEAN CORPUSCULAR HEMOGLOBIN CONCENTRATION / MEAN CORPUSCULAR VOLUME / MONOCYTE / NEUTROPHIL / NUCLEATED RED BLOOD CELLS / PLATELET COUNT: tissue Blood; for ALANINE AMINOTRANSFERASE / ALBUMIN / ALKALINE PHOSPHATASE / ASPARTATE AMINOTRANSFERASE / BLOOD UREA NITROGEN / CARBON DIOXIDE / CHLORIDE / CHOLESTEROL / CREATINE PHOSPHOKINASE / CREATININE / GLUCOSE / LACTATE DEHYDROGENASE / LIPASE / PHOSPHORUS / POTASSIUM / SODIUM / TOTAL BILIRUBIN / TOTAL PROTEIN / URIC ACID: tissue Plasma
smiles,measurement,setting,value
NNCCc1ccccc1 [PHENELZINE],ABSOLUTE BASOPHIL,"72 h, time 3 day",0 CELLS/uL
same,ABSOLUTE EOSINOPHIL,"72 h, time 3 day",60.67 CELLS/uL
same,ABSOLUTE LYMPHOCYTE,"72 h, time 3 day",9104.67 CELLS/uL
same,ABSOLUTE MONOCYTE,"72 h, time 3 day",151.67 CELLS/uL
same,ABSOLUTE SEGMENTED NEUTROPHIL,"72 h, time 3 day",949.67 CELLS/uL
same,BASOPHIL,"72 h, time 3 day",0%
same,EOSINOPHIL,"72 h, time 3 day",0.67%
same,ERYTHROCYTE COUNT,"72 h, time 3 day",5.11 x10E6/uL
same,HEMATOCRIT,"72 h, time 3 day",32.4%
same,HEMOGLOBIN,"72 h, time 3 day",12.97 G/DL
same,LEUKOCYTE COUNT,"72 h, time 3 day",10.27 x10E3/uL
same,LYMPHOCYTE,"72 h, time 3 day",88%
same,MEAN CORPUSCULAR HEMOGLOBIN,"72 h, time 3 day",25.37 pg
same,MEAN CORPUSCULAR HEMOGLOBIN CONCENTRATION,"72 h, time 3 day",40.03 G/DL
same,MEAN CORPUSCULAR VOLUME,"72 h, time 3 day",63.37 fL
same,MONOCYTE,"72 h, time 3 day",1.67%
same,NEUTROPHIL,"72 h, time 3 day",9.67%
same,NUCLEATED RED BLOOD CELLS,"72 h, time 3 day",0 /100WBC
same,PLATELET COUNT,"72 h, time 3 day",935.33 x10E3/uL
same,ALANINE AMINOTRANSFERASE,"72 h, time 3 day",55.33 u/L
same,ALBUMIN,"72 h, time 3 day",4.33 G/DL
same,ALKALINE PHOSPHATASE,"72 h, time 3 day",325.33 u/L
same,ASPARTATE AMINOTRANSFERASE,"72 h, time 3 day",98 u/L
same,BLOOD UREA NITROGEN,"72 h, time 3 day",15.33 mg/dL
same,CARBON DIOXIDE,"72 h, time 3 day",33 mmol/L
same,CHLORIDE,"72 h, time 3 day",101.67 MEQ/L
same,CHOLESTEROL,"72 h, time 3 day",78.33 mg/dL
same,CREATINE PHOSPHOKINASE,"72 h, time 3 day",665.67 u/L
same,CREATININE,"72 h, time 3 day",0.17 mg/dL
same,GLUCOSE,"72 h, time 3 day",155 mg/dL
same,LACTATE DEHYDROGENASE,"72 h, time 3 day",181.67 u/L
same,LIPASE,"72 h, time 3 day",9 u/L
same,PHOSPHORUS,"72 h, time 3 day",12.03 mg/dL
same,POTASSIUM,"72 h, time 3 day",6.23 MEQ/L
same,SODIUM,"72 h, time 3 day",144.83 MEQ/L
same,TOTAL BILIRUBIN,"72 h, time 3 day",0.17 mg/dL
same,TOTAL PROTEIN,"72 h, time 3 day",5.93 G/DL
same,URIC ACID,"72 h, time 3 day",1.23 mg/dL
same,ABSOLUTE BASOPHIL,"120 h, time 5 day",0 CELLS/uL
same,ABSOLUTE EOSINOPHIL,"120 h, time 5 day",42 CELLS/uL
same,ABSOLUTE LYMPHOCYTE,"120 h, time 5 day",10324 CELLS/uL
same,ABSOLUTE MONOCYTE,"120 h, time 5 day",37 CELLS/uL
same,ABSOLUTE SEGMENTED NEUTROPHIL,"120 h, time 5 day",997 CELLS/uL
same,BASOPHIL,"120 h, time 5 day",0%
same,EOSINOPHIL,"120 h, time 5 day",0.33%
same,ERYTHROCYTE COUNT,"120 h, time 5 day",5.61 x10E6/uL
same,HEMATOCRIT,"120 h, time 5 day",36.03%
same,HEMOGLOBIN,"120 h, time 5 day",14.1 G/DL
same,LEUKOCYTE COUNT,"120 h, time 5 day",11.4 x10E3/uL
same,LYMPHOCYTE,"120 h, time 5 day",90.67%
same,MEAN CORPUSCULAR HEMOGLOBIN,"120 h, time 5 day",25.13 pg
same,MEAN CORPUSCULAR HEMOGLOBIN CONCENTRATION,"120 h, time 5 day",39.2 G/DL
same,MEAN CORPUSCULAR VOLUME,"120 h, time 5 day",64.23 fL
same,MONOCYTE,"120 h, time 5 day",0.33%
same,NEUTROPHIL,"120 h, time 5 day",8.67%
same,NUCLEATED RED BLOOD CELLS,"120 h, time 5 day",0 /100WBC
same,PLATELET COUNT,"120 h, time 5 day",1075 x10E3/uL
same,ALANINE AMINOTRANSFERASE,"120 h, time 5 day",41.33 u/L
same,ALBUMIN,"120 h, time 5 day",4.57 G/DL
same,ALKALINE PHOSPHATASE,"120 h, time 5 day",403 u/L
same,ASPARTATE AMINOTRANSFERASE,"120 h, time 5 day",105.67 u/L
same,BLOOD UREA NITROGEN,"120 h, time 5 day",21.67 mg/dL
same,CARBON DIOXIDE,"120 h, time 5 day",25.67 mmol/L
same,CHLORIDE,"120 h, time 5 day",101.67 MEQ/L
same,CHOLESTEROL,"120 h, time 5 day",67 mg/dL
same,CREATINE PHOSPHOKINASE,"120 h, time 5 day",480.33 u/L
same,CREATININE,"120 h, time 5 day",0.33 mg/dL
same,GLUCOSE,"120 h, time 5 day",130.33 mg/dL
same,LACTATE DEHYDROGENASE,"120 h, time 5 day",623.33 u/L
same,LIPASE,"120 h, time 5 day",11.33 u/L
same,PHOSPHORUS,"120 h, time 5 day",12.7 mg/dL
same,POTASSIUM,"120 h, time 5 day",6.78 MEQ/L
same,SODIUM,"120 h, time 5 day",142.87 MEQ/L
same,TOTAL BILIRUBIN,"120 h, time 5 day",0.27 mg/dL
same,TOTAL PROTEIN,"120 h, time 5 day",6.3 G/DL
same,URIC ACID,"120 h, time 5 day",1.63 mg/dL
